The assay deals with rat mesenteric arteries. Nature of the assay: Vasoreactivity in rat mesenteric arteries in vitro (relaxation of U46619-contracted vessels, tension myograph). The settings on record: for % relaxation 1 μM / % relaxation 3 μM / % relaxation 10 μM / % relaxation 30 μM / inhibition at 1 µM / inhibition at 3 µM / inhibition at 10 µM / inhibition at 30 µM: U46619-contracted third-order arteries; for inhibition at 1 µM / inhibition at 3 µM / inhibition at 10 µM / inhibition at 30 µM / EC50: Rattus norvegicus; for EC50: vasorelaxation, calculated from concentration-response curves. The procedure: Male rats (Sprague-Dawley; 200-250 g) were stunned and killed by cervical dislocation. The mesentery was removed and third-order arteries mounted in an automated tension myograph (Danish Myotechnology). After an equilibration period of 45 min, vessels were normalized and diameter determined. Following normalization, each vessel was contracted repeatedly with the thromboxane A2-mimetic 9,11-dideoxy-11^α,9^α-epoxymethano-prostaglandin F2α (U46619; 1 μM) until the response was reproducible. The vessels were then washed to restore basal tone before contracting to approximately 50% of the maximum U46619-induced response. Once a stable response to U46619 was achieved, cumulative concentration-response curves were constructed with a variety of NPR-C agonists of the invention at varying concentrations (0.001-30 μM), or vehicle (DMSO). In some studies, concentration-response curves to NPR-C agonists were conducted in the presence of the NPR-C antagonist M372049 (10 μM). Only one curve to any one agonist was constructed in any single tissue.

On to `CC(NC(=O)c1cnc2ccccn2c1=O)C(=O)O` (centres unmarked) [Compound 203], for which the “% relaxation 1 μM” value is 7%, the “% relaxation 3 μM” value was found to be 6%, the “% relaxation 10 μM” value is 28% and the “% relaxation 30 μM” value is on record as 50%.
In the case of `O=C(O)CNC(=O)c1cn(Cc2ccccc2F)c2ccccc2c1=O` [Compound 173, 2-(1-(2-Fluorobenzyl)-4-oxo-1,4-dihydroquinoline-3-carboxamido)acetic acid], the inhibition at 1 µM came to 4%, the inhibition at 3 µM is 13%, the inhibition at 10 µM came out at 15% and the inhibition at 30 µM came to 79%. The EC50 was greater than 50 µM.
Take `O=C(N[C@@H](Cc1ccccc1)C(=O)O)c1cn(Cc2ccccc2)c2ccc(Br)cc2c1=O` [Compound 187, (S)-2-(1-benzyl-6-bromo-4-oxo-1,4-dihydroquinoline-3-carboxamido)-3-phenylpropanoic acid]: the inhibition at 1 µM stood at 31%, the inhibition at 3 µM was determined as 57%, testing at 10 µM gave an inhibition of 93% and the inhibition at 30 µM is 100%. Besides, the EC50 is 1.6 µM.
Regarding `O=C(O)CNC(=O)c1cnc2ccccn2c1=O` [Compound 121], the “% relaxation 1 μM” value came to 5%, the “% relaxation 3 μM” value amounted to 2%, the “% relaxation 10 μM” value is on record as 3% and the “% relaxation 30 μM” value is 17%.
The compound `CCn1cc(C(=O)NCC(=O)O)c(=O)c2ccccc21` [Compound 171, 2-(1-Ethyl-4-oxo-1,4-dihydroquinoline-3-carboxamido)acetic acid] came in with an inhibition at 1 µM of 2%, an inhibition at 3 µM of 2%, an inhibition at 10 µM of 8% and an inhibition at 30 µM of 20%. Also, the EC50 is greater than 50 µM.
Turning to `COc1ccc(Cn2cc(C(=O)NCC(=O)O)c(=O)c3ccccc32)cc1` [Compound 174, 2-(1-(4-Methoxybenzyl)-4-oxo-1,4-dihydroquinoline-3-carboxamido)acetic acid], testing at 1 µM gave an inhibition of 4%, the inhibition at 3 µM came out at 4%, the inhibition at 10 µM stood at 8% and 30 µM produced 20% inhibition. The EC50 was greater than 50 µM.
Regarding `O=C(O)CNC(=O)c1cn(Cc2ccccc2Cl)c2ccccc2c1=O` [Compound 177, 2-(1-(2-Chlorobenzyl)-4-oxo-1,4-dihydroquinoline-3-carboxyamido)acetic acid], the inhibition at 1 µM is 1%, testing at 3 µM gave an inhibition of 3%, testing at 10 µM gave an inhibition of 6% and the inhibition at 30 µM was 52%. Also, the EC50 is greater than 50 µM.
On to `O=C(O)CNC(=O)c1cn(Cc2cccc(Cl)c2)c2ccccc2c1=O` [Compound 172, 2-(1-(3-Chlorobenzyl)-4-oxo-1,4-dihydroquinoline-3-carboxamido)acetic acid], for which testing at 1 µM gave an inhibition of 5%, the inhibition at 3 µM stood at 20%, the inhibition at 10 µM amounted to 43% and the inhibition at 30 µM was 91%. Also, the EC50 was greater than 50 µM.
For `CC(C)C[C@H](NC(=O)c1cn(Cc2ccccc2)c2ccccc2c1=O)C(=O)O` [Compound 201, (S)-2-(1-benzyl-4-oxo-1,4-dihydroquinoline-3-carboxamido)-4-methylpentanoic acid] the same measures were 0%, 0%, 0%, 82% and greater than 50 µM.
For `CCn1cc(C(=O)O)c(=O)c2ccc(C)nc21` [Compound 137], the “% relaxation 1 μM” value worked out at 0%, the “% relaxation 3 μM” value came out at 1%, the “% relaxation 10 μM” value turned out to be 9% and the “% relaxation 30 μM” value is given as 69%.
Compound `O=C(O)CNC(=O)c1cn(Cc2ccc(OC(F)(F)F)cc2)c2ccccc2c1=O` [Compound 176, 2-(4-Oxo-1-(4-(trifluoromethoxy)benzyl)-1,4-dihydroquinoline-3-carboxamido)acetic acid] registered an inhibition at 1 µM of 8%, an inhibition at 3 µM of 9%, an inhibition at 10 µM of 17% and an inhibition at 30 µM of 91%. Moreover, the EC50 was greater than 50 µM.
In turn, `Cc1cc(C)cc(Cn2cc(C(=O)NCC(=O)O)c(=O)c3ccccc32)c1` [Compound 175, 2-(1-(3.5-Dimethylbenzyl)-4-oxo-1,4-dihydroquinoline-3-carboxamido)acetic acid] came in with an inhibition at 1 µM of 8%, an inhibition at 3 µM of 8%, an inhibition at 10 µM of 12% and an inhibition at 30 µM of 88%. Also, the EC50 is greater than 50 µM.
As for `CC(C)C(NC(=O)c1cnc2ccccn2c1=O)C(=O)O` (centres unmarked) [Compound 120], the “% relaxation 1 μM” value turned out to be 0%, the “% relaxation 3 μM” value is recorded as 3%, the “% relaxation 10 μM” value came to 3% and the “% relaxation 30 μM” value is reported as 20%.
As for `O=C(NC(Cc1ccccc1)C(=O)O)c1cnc2ccccn2c1=O` (centres unmarked) [Compound 205], the “% relaxation 1 μM” value was −9%, the “% relaxation 3 μM” value is given as 13%, the “% relaxation 10 μM” value came to 13% and the “% relaxation 30 μM” value is on record as 14%.
`C[C@H](NC(=O)c1cn(Cc2ccccc2)c2ccc(Br)cc2c1=O)C(=O)O` [Compound 189, (S)-2-(1-benzyl-6-bromo-4-oxo-1,4-dihydroquinoline-3-carboxamido)propanoic acid] came in with an inhibition at 1 µM of 4%, an inhibition at 3 µM of 12%, an inhibition at 10 µM of 64% and an inhibition at 30 µM of 84%.
Take `O=C(O)CNC(=O)c1c[nH]c2ccccc2c1=O` [Compound 178, 2-(4-Oxo-1,4-dihydroquinoline-3-carboxamido)acetic acid]: the inhibition at 1 µM was determined as 5%, testing at 3 µM gave an inhibition of 6%, the inhibition at 10 µM was 11% and 30 µM produced 16% inhibition. Further, the EC50 is 17.4 µM.
As to `CC(C)(C)OC(=O)n1cc(C(=O)O)c(=O)c2ccccc21` [Compound 81], the inhibition at 1 µM was determined as 1%, 3 µM produced 1% inhibition, the inhibition at 10 µM was 7% and 30 µM produced 25% inhibition.
Regarding `CC(C)C[C@H](NC(=O)c1cn(Cc2ccccc2)c2ccc(Br)cc2c1=O)C(=O)O` [Compound 188, (S)-2-(1-benzyl-6-bromo-4-oxo-1,4-dihydroquinoline-3-carboxamido)-4-methylpentanoic acid], the inhibition at 1 µM was determined as 4%, at 3 µM the inhibition was 3%, 10 µM produced 2% inhibition and testing at 30 µM gave an inhibition of 87%. Also, the EC50 is greater than 50 µM.
For the compound `CC(C)CC(NC(=O)c1cnc2ccccn2c1=O)C(=O)O` (centres unmarked) [Compound 204], the “% relaxation 1 μM” value came to 9%, the “% relaxation 3 μM” value was found to be 18%, the “% relaxation 10 μM” value stood at 30% and the “% relaxation 30 μM” value is 92%.
On to `O=C(N[C@@H](Cc1ccccc1)C(=O)O)c1cn(Cc2ccccc2)c2ccccc2c1=O` [Compound 200, (S)-2-(1-benzyl-4-oxo-1,4-dihydroquinoline-3-carboxamido)-3-phenylpropanoic acid], for which the inhibition at 1 µM turned out to be 4%, at 3 µM the inhibition was 10%, the inhibition at 10 µM was 67% and the inhibition at 30 µM amounted to 89%. For the same compound, the EC50 is greater than 50 µM.
Compound `O=C(O)c1cn(Cc2cccc(Cl)c2)c2ccccc2c1=O` [Compound 155, 1-(3-Chlorobenzyl)-4-oxo-1,4-dihydroquinoline-3-carboxylic acid] gave an inhibition at 1 µM of 4%, an inhibition at 3 µM of 6%, an inhibition at 10 µM of 10% and an inhibition at 30 µM of 25%.
In turn, `C[C@H](NC(=O)c1cn(Cc2ccccc2)c2ccccc2c1=O)C(=O)O` [Compound 202, (S)-2-(1-benzyl-4-oxo-1,4-dihydroquinoline-3-carboxamido)-2-methylethanoic acid] yielded an inhibition at 1 µM of 2%, an inhibition at 3 µM of 3%, an inhibition at 10 µM of 20% and an inhibition at 30 µM of 36%. Moreover, the EC50 was 20.3 µM.
